Experimental data: EP2253308A1, “Pharmaceutical composition comprising microbubbles for targeted tumor therapy” (Ludwig-Maximilians-Universität München, priority 2009, dated 2010)

Tested on: 293/KDR human kidney carcinoma tissue cultures
Test: In vitro anti-proliferative efficacy, cell viability assay (formazan absorption) with or without ultrasound
Type: cell-based
Details: effect not affected by the application of ultrasound; 24 hours incubation; % of untreated cells
Procedure: The anti-proliferative efficacy of doxorubicin-loaded microbubbles according to Example 2 was determined in an in vitro experiment using 293/KDR human kidney carcinoma tissue cultures.
First, the cells were cultivated in 10% fetal calf serum activated Dulbecco's Modified Eagle Medium. Prior to the experiment, the cells were brought in suspension by trypsin/EDTA solution. A cell suspension of 200 µl containing about 6 x 10^4 cells was transferred into each well of a 96-well plate (Greiner Bio-One GmbH, Germany) and subsequently admixed with an aqueous solution of either doxorubicin, doxorubicin-loaded liposomes, or doxorubicin-loaded microbubbles (n = 10). The corresponding blank samples were prepared without doxorubicin (see Figure 3). Ultrasound with a frequency of 1 MHz, an intensity of 2 W/cm^2, and a duty cycle of 50% was applied directly onto each well using Sonitron 2000 (Rich-Mar Inc., USA). In order to avoid the presence of standing waves, the well plate was under laid with an absorbing gel pad.
After 24 hours of incubation the cell metabolic activity was measured using a cell viability assay. […] Purple formazan produced by viable cells could be measured by its UV/Vis absorption using FluostarOmega plate reader (BMG Labtech GmbH, Offenburg, Germany) at a wavelength of 590 nm (measurement) and a wavelength of 630 nm (reference). […]

Q: With `COc1cccc2c1C(=O)c1c(O)c3c(c(O)c1C2=O)C[C@@](O)(C(=O)CO)C[C@@H]3O[C@H]1C[C@H](N)[C@H](O)[C@H](C)O1` [free doxorubicin] as the molecule, how does the cell viability read?
A: Its cell viability is 62-64%.
